Experimental data taken from US7342021B2, “Phosphodiesterase 4 inhibitors” (Memory Pharmaceuticals Corp., priority 2001, dated 2008).
Counter-ions that a name gives are not always drawn.

Key:
[1] = Solubility of the mesylate salt in H2O; format: physicochemical
Method: To obtain the methansulphonate salt (mesylate salt), 4 ml of 0.1N CH3SO3H in EtOAc was added to a solution of 145 mg (0.4 mmol) 6-cyclopropylamino-9-(2-fluorobenzyl)-2-trifluoromethylpurine in EtOAc. Then, 1 ml of hexane was added to a warm solution and the resultant mixture was allowed to crystallize (within a refrigerator). The solid was collected to give 148 mg of the mesylate salt. […] M.p. 167.5-169.0 C; m.p. 114-118 C for free base.

rats [2] = assay: Passive avoidance in rats, an in vivo test for learning and memory; parameters: species or system rat; conditions: MK-801 0.1 mg/kg pretreatment, retention test 24 hours after electric shock, compared to the vehicle, p<0.001
Method: The test was performed as previously described (Zhang, H.-T., Crissman, A. M., Dorairaj, N. R., Chandler, L. J., and O'Donnell, J. M., Neuropsychopharmacology, 2000, 23, 198-204.). The apparatus (Model E10-16SC, Coulbourn Instruments, Allentown, Pa.) consisted of a two-compartment chamber with an illuminated compartment connected to a darkened compartment by a guillotine door. The floor of the darkened compartment consisted of stainless steel rods through which an electric foot-shock could be delivered from a constant current source. All experimental groups were first habituated to the apparatus the day before the start of the experiment. During the training, the rat (Male Spraque-Dawley (Harlan) weighing 250 to 350 g) was placed in the illuminated compartment facing away from the closed guillotine door for 1 minute before the door was raised. The latency for entering the darkened compartment was recorded. After the rat entered the darkened compartment, the door was closed and a 0.5 mA electric shock was administered for 3 seconds. […] The latency for entering the darkened compartment was recorded for up to 180 seconds, at which time the trial was terminated.
(§1) All data were analyzed by analyses of variance (ANOVA); individual comparisons were made using Kewman-Keuls tests. […]

rats [3] = assay: Radial arm maze task in rats, an in vivo test for learning and memory; parameters: species or system rat; conditions: MK-801 0.1 mg/kg i.p., compared to control, p<0.01
Method: The test was performed as previously described (Zhang, H.-T., Crissman, A. M., Dorairaj, N. R., Chandler, L. J., and O'Donnell, J. M., Neuropsychopharmacology, 2000, 23, 198-204.). Five days after initial housing, rats (male Spraque-Dawley (Harlan) weighing 250 to 350 g) were placed in the eight-arm radial maze (each arm was 60×10×12 cm high; the maze was elevated 70 cm above the floor) for acclimation for two days. Rats were then placed individually in the center of the maze for 5 minutes with food pellets placed close to the food wells, and then, the next day, in the wells at the end of the arms; 2 sessions a day were conducted. Next, four randomly selected arms were then baited with one pellet of food each. The rat was restricted to the center platform (26 cm in diameter) for 15 seconds and then allowed to move freely throughout the maze until it collected all pellets of food or 10 minutes passed, whichever came first. Four parameters were recorded: 1) working memory errors, i.e., entries into baited arms that had already been visited during the same trial; 2) reference memory errors, i.e., entries into unbaited arms; 3) total arm entries; and 4) the test duration (seconds), i.e., the time spent in the collection of all the pellets in the maze. […]
as §1

Structure (SMILES) | solubility in H2O [1] | latency for entering the darkened compartment (rats [2]) | reference memory errors (frequency) (rats [3]) | working memory errors (frequency) (rats [3])
Fc1ccccc1Cn1cnc2c(NC3CC3)nc(C(F)(F)F)nc21 [Example 4 mesylate salt, 6-cyclopropylamino-9-(2-fluorobenzyl)-2-trifluoromethylpurine] | relatively insoluble |  |  | 
C[C@]12N[C@H](Cc3ccccc31)c1ccccc12 [MK-801] |  | markedly reduced this latency | increased the frequencies | increased the frequencies
